In paper doi:10.1101/2023.08.31.555806v1 (biorxiv, 2023) one finds IC50 data, which are given here for 1 compound.

Broadly, the IC50 is the midpoint of a concentration-inhibition curve. The low end stands for inhibition by little substance, the high end for a need for much substance.

For the assay, the target named is T1, VraS (GST-VraS) (Staphylococcus aureus, UniProt Q7A2Q0).
T1 sequence (Q7A2Q0 1-347): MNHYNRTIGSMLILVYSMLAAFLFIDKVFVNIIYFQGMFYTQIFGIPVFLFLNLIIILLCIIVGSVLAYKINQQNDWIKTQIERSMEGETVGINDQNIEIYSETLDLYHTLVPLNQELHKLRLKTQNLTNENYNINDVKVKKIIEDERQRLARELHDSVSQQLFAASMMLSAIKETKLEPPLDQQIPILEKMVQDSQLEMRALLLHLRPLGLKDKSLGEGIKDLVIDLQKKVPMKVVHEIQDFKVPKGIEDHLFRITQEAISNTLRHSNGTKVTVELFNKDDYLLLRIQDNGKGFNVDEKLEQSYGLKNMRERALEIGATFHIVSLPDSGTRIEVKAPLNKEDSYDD
Kind of assay: ATPase activity, pyruvate kinase/lactate dehydrogenase-coupled NADH fluorescence. The class given is biochemical.

Turning to `CCSc1nc2ccc(NC(=O)NC(c3cc(C)ccn3)C3CC3)cc2o1` (stereo not shown) [compound 1, 1-(cyclopropyl(4-methylpyridin-2-yl)methyl)-3-(2-(ethylthio)benzo[d]oxazol-6-yl)urea], 940 ± 290 nM corresponded to half-maximal inhibition (IC50).
